Assay results as given in patent publication US20150342876A1, “METHODS AND PHARMACEUTICAL COMPOSITIONS FOR THE TREATMENT OF OCULAR INFLAMMATORY DISEASES” (Institut National de la Santé et de la Recherche Médicale …, priority 2011, published 2015).

How the values were obtained:
Assay type in all cases: in vivo, Lewis rats
[1] = test system: resident microglial cells of the retina and ciliary body; test: Anti-IBA-1 immunohistochemistry of resident microglial cells in EIU; settings: 24 h after LPS and intravitreal injection, compared to eyes injected with the vehicle
Method: To evaluate the effect of aldosterone on resident microglial cells of the retina and ciliary body, we performed immunohistochemical studies with an anti-IBA-1 antibody coupled with a secondary antibody Alexa488 on cryostat sections 24 h after LPS injection and injection intravitreal aldosterone or spironolactone. […] The anti-inflammatory effect of aldosterone may be related to the deactivation of resident microglial cells.

IFN-γ/IL-4 = test: Chemokine/cytokine multiplex assay of ocular media in EIU: IFN-γ/IL-4; settings: compared with control animals treated with the vehicle alone (FIG. 2)
Method: (§1) Aqueous humor and vitreous collected from each eye were pooled, diluted to obtain a final volume of 25 μL, and subjected to multiplex bead analysis. This method uses microspheres as the solid support for immunoassays (Vignali D A. Multiplexed particle-based flow cytometric assays. J Immunol Methods. 2000; 243:243-255.) and allows the titration of a greater number of cytokines with increased sensitivity than occurs with ELISA (Ooi K G, Galatowicz G, Towler H M, Lightman S L, Calder V L. Multiplex cytokine detection versus ELISA for aqueous humor: IL-5, IL-10, and IFNγ profiles in uveitis. Invest Ophthalmol Vis Sci. 2006; 47:272-277.). The rat cytokine/chemokine LINCO-16plex kit (Linco Research) was purchased from Invitrogen (Cergy-Pontoise, France). Chemokine MIP1α/CCL3, proinflammatory mediator TNF-α, cytokines IFN-γ/IL-4, and IL-6 were measured according to the manufacturer's instructions. The assay was performed in a 96-well filter plate with all the assay components provided in the kit. Standard curves for each cytokine were generated with a calibration kit (Bio-Rad, Hercules, Calif.). All incubation steps were performed at room temperature with medium orbital agitation and in the dark to protect the beads from light. Data acquisition and analysis were performed with the manager software version 4.1 (Bioplex; Bio-Rad) with four or five logistic parameters for standard curves. […]

MIP1α/CCL3 = test: Chemokine/cytokine multiplex assay of ocular media in EIU: MIP1α/CCL3; settings: compared with control animals treated with the vehicle alone (FIG. 2)
Method: as §1

blood-ocular barrier = test: Proteins present in eye fluids (leaking of the blood-ocular barrier) in EIU; settings: at 6 hours, versus vehicle
Excerpt: Proteins present in eye fluids reflect the leaking of the blood-ocular barrier.

TNF-α = test: Chemokine/cytokine multiplex assay of ocular media in EIU: TNF-α; settings: compared with control animals treated with the vehicle alone (FIG. 2)
Method: as §1

[2] = test system: Endotoxin-induced uveitis; test: Endotoxin-induced uveitis, clinical score at slit lamp; settings: for severity of uveitis (clinical examination): slit lamp 24 hours after LPS
Method: Female Lewis rats (6- to 8-week old) weighing 230-250 g (Elevage Janvier, Le Genest Saint Isle, France) were used and handled in accordance with the ARVO Statement for the Use of Animals in Ophthalmic and Vision Research. Rats were anesthetized with intramuscular injection of ketamine (75 mg kg^−1; Virbac, Carros Cedex, France) and Largactil (0.5 mg kg^−1; Sanofi-aventis, Paris, France) before ocular injection and ET. At the end of the experiments, rats were anesthetized by intraperitoneal injection of pentobarbital (30 mg kg^−1; Sanofi-aventis) before blood collection by intracardiac puncture and then killed with a lethal dose of pentobarbital.
Endotoxin-induced uveitis was induced by footpad injection of 0.1 ml sterile pyrogen-free saline containing 500 μgkg^−1 LPS (from Salmonella typhimurium; Sigma-Aldrich). Animals were examined by slit lamp during the maximal severity of EIU developing in this model 24 h after the footpad injection. The intensity of clinical ocular inflammation was scored on a scale from 0 to 5 for each eye as described previously (Behar-Cohen F F, Parel J M, Pouliquen Y, Thillaye-Goldenberg B, Goureau O, Heydolph S et al. Iontophoresis of dexamethasone in the treatment of endotoxin-induced-uveitis in rats. Exp Eye Res 1997; 65: 533-545.): grade (0) indicates no inflammation; grade 1 indicates the presence of a minimal iris and conjunctival vasodilation but without the observation of flare or cells in the anterior chamber (AC); grade 2 indicates the presence of moderate iris and conjunctival vessel dilation but without evident flare or cells in the AC; grade 3 indicates the presence of intense iris vessels dilation, flare and less than 10 cells per slit lamp field in the AC; grade 4 indicates the presence of more severe clinical signs than grade 3, with more than 10 cells in the AC with or without the formation of a hypopyon; grade 5 indicates the presence of intense inflammatory reaction, fibrin formation in the AC and total seclusion of the pupil.
Clinical evaluation was performed in a masked manner by two observers. The mean clinical score of the two observers was recorded.
Lewis rats were anesthetized by intraperitoneal injection of 0.15 mL pentobarbital (5.47 g/100 mL saline). Pupils were dilated by instillation of one drop of tropicamide 5%. One drop of tetracaine 1% was administered for local anesthesia. Intravitreal injections (10 μL) of aldosterone (20 nM and 200 nM) and spironolactone (10 μM) were performed in both eyes using sterile syringes fitted with a 30-gauge needle (Microfine; Becton Dickinson AG, Meylan, France). Intravitreal injections were performed simultaneously with EIU induction, as described.
Results are expressed as mean±SEM. The Mann-Whitney U test was used to determine differences between groups. […]

GR = test: Expression of GR in the iris and ciliary body in EIU (quantitative PCR); settings: after intravitreal injection in EIU
Method: (§2) Iris and ciliary body tissues are most involved in the EIU. In an attempt to understand the role of MR and GR in EIU model, we evaluated the expression of these two receptors in quantitative PCR in the iris/ciliary body 3 h, 6 h and 24 h after injection of LPS. We were surprised that the kinetics of MR and GR were not similar. 3 hours after induction of EIU (p<0.001), so before the infiltration of inflammatory cells, there was a decreased expression of MR, which was maintained up to 24 hours (p<0.001). On the contrary the decreased expression of GR was later in the 24th hour (p<0.01). Immunohistochemical studies confirmed the decrease in the rate of receptors in the iris. The decreased expression of MR and GR takes place mainly in the endothelial cells of vessels in the iris and iris stromal cells. At baseline, the binding of endogenous glucocorticoids to MR likely plays a role in anti-inflammatory. The reduction of early MR can be seen as a step prior to the onset of ocular inflammation.
(§3) The expression of MR and GR in the iris and ciliary body is increased after intravitreal injection of aldosterone (p<0.05). […] Presumably, the anti-inflammatory effect of aldosterone in this model is partly due to the increased expression of MR.

MR = test: Expression of MR in the iris and ciliary body in EIU (quantitative PCR); settings: after intravitreal injection in EIU, p<0.05
Method: as §2, §3

IL-6 = test: Chemokine/cytokine multiplex assay of ocular media in EIU: IL-6; settings: compared with control animals treated with the vehicle alone (FIG. 2)
Method: as §1

macrophages = test: EDI positive cell counts in histological sections (immunohistochemistry) in EIU; settings: intravitreal 200 nM, 24 h after LPS, compared to eyes injected vehicle or spironolactone, p<0.05
Method: To evaluate the effect of intravitreal injection of 200 nM aldosterone and spironolactone 10 μM, immunohistochemical studies were performed on cryostat sections. An anti EDI antibody coupled with an Alexa488 secondary antibody was used to mark macrophages which are among the cells most involved in EIU. We conducted an EDI positive cell counts in histological sections 24 h after LPS injection and intravitreal injection of aldosterone or spironolactone.

With C[C@]12CCC(=O)C=C1CC[C@@H]1[C@@H]2[C@@H](O)C[C@]2(C=O)[C@@H](C(=O)CO)CC[C@@H]12 [aldosterone, 11β,21-dihydroxy-3,20-dioxopregn-4-en-18-al] as the compound, how does the “state of microglial cells (IBA-1)” value [1] read?
Its value is “greater number of microglial cells were then branched into a latent state”.

And the “IFN-γ/IL-4 in the ocular media” value (IFN-γ/IL-4)?
The value was “significantly reduced”.

And the “MIP1α/CCL3 in the ocular media” value (MIP1α/CCL3)?
The value was “significantly reduced”.

What about the “rate of protein in eye fluids” value (blood-ocular barrier) of the same compound?
The value was “significantly reduced”.

What about the “TNF-α in the ocular media” value (TNF-α) of the same compound?
The value was “significantly reduced”.

And the “severity of uveitis (clinical examination)” value (shortened to “severity of uveitis”) ([2]; injection 1 nM)?
Its value is “had no effect”.

And the “severity of uveitis” value ([2]; intravitreal injection 20 nM, p<0.05)?
Its value is “severity decrease statistically significant”.

What about the “severity of uveitis” value ([2]; intravitreal injection 200 nM, p<0.001) of the same compound?
Its value is “severity decrease statistically significant”.

And the “expression of GR in the iris and ciliary body” value (GR)?
Its value is “increased”.

What about the “expression of MR in the iris and ciliary body” value (MR) of the same compound?
The value was “increased”.

What about the “IL-6 in the ocular media” value (IL-6) of the same compound?
The value was “significantly reduced”.

And the “number of macrophages (EDI positive cell counts)” value (macrophages)?
The value was “decrease in the number of macrophages”.

How did the “state of microglial cells (IBA-1)” value [1] turn out when CC(=O)S[C@@H]1CC2=CC(=O)CC[C@]2(C)[C@H]2CC[C@@]3(C)[C@@H](CC[C@@]34CCC(=O)O4)[C@H]12 [spironolactone] was run?
The value was “larger number of microglial cells were round, and consequently active”.

What about the “IFN-γ/IL-4 in the ocular media” value (IFN-γ/IL-4) of the same compound?
Its value is “significantly increased”.

And the “MIP1α/CCL3 in the ocular media” value (MIP1α/CCL3)?
Its value is “significantly increased”.

What about the “rate of protein in eye fluids” value (blood-ocular barrier) of the same compound?
The value was “had no effect”.

What about the “TNF-α in the ocular media” value (TNF-α) of the same compound?
The value was “significantly increased”.

And the “intensity of uveitis (clinical examination)” value ([2]; intravitreal injection 10 microM, 24 hours)?
The value was “increased the intensity of uveitis”.

And the “expression of GR in the iris and ciliary body” value (GR)?
The value was “has no effect”.

And the “expression of MR in the iris and ciliary body” value (MR)?
The value was “exacerbated the decrease in MR”.

And the “IL-6 in the ocular media” value (IL-6)?
The value was “significantly increased”.
